Peptide text beside a SMILES is read from it. * marks the point of attachment. Cbz = O=C(OCc1ccccc1)*

The target in this experiment is rSmeCalp1 (recombinant Schistosoma mekongi calpain 1) (Schistosoma mekongi, UniProt A0A5B8WCQ5). In words: fluorogenic protease assay (AMC release). The experiment is classed as biochemical.
Chain of rSmeCalp1 (recombinant Schistosoma mekongi calpain 1) (A0A5B8WCQ5 entry or part of it): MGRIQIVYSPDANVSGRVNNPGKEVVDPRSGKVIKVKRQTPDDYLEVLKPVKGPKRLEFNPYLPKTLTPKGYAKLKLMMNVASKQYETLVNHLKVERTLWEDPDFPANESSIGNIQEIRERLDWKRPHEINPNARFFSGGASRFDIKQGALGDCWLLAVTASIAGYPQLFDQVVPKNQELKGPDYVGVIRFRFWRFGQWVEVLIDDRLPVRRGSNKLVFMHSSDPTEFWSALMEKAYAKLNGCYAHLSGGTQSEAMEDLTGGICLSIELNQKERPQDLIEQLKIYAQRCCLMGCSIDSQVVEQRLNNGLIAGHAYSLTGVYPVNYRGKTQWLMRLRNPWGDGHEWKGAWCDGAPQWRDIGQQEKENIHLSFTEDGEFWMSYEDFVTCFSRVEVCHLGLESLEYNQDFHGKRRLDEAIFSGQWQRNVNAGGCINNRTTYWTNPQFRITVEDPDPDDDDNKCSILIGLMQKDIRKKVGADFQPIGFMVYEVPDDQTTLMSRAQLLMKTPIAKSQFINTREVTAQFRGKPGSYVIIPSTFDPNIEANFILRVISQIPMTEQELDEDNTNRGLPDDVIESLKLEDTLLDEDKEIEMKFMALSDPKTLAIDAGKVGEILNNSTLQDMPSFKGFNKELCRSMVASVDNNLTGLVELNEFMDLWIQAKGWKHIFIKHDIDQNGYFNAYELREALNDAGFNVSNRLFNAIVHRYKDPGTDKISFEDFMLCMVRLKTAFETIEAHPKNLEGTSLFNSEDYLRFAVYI

Regarding `CC(C)[C@H](NC(=O)OCc1ccccc1)C(=O)N[C@H](C=O)Cc1ccccc1` [MDL28170] (Cbz-Val-Phe-aldehyde), the inhibition at 100 µM amounted to 94%.

Consider `CC(C)CCNC(=O)[C@H](CC(C)C)NC(=O)[C@H]1O[C@@H]1C(=O)O` [E64c], for which the inhibition at 100 µM is 87%.

Consider `CC(C)C[C@H](NC(=O)[C@@H]1O[C@H]1C(=O)O)C(=O)NCCCCN=C(N)N` [E64], for which the inhibition at 100 µM is 98%.

By inhibition is commonly meant the change of the read-out against control, counted positive when it falls.

The values above are taken from article PMC6668146, “Molecular characterization and functional analysis of the Schistosoma mekongi Ca^2+-dependent cysteine protease (calpain)” (Parasites & Vectors, 2019).
